Tests used:
Assay type in all cases: cell-based
mesenchymal stem cells [1] = assay: Mesenchymal stem cell culture with growth factors with or without nicotinamide, cell counts
Experimental: Isolation: Bone marrow derived and adipose tissue derived mesenchymal cells were isolated based on their plastic adherence potential in expansion medium containing: High glucose DMEM and 10% Fetal Bovine Serum (FBS, Hyclone, Logan, Utah, USA) supplemented with 0.05 mg/ml Gentamicin (Sigma) and 2 mM L-glutamine (Biological Industries, Israel). Cells were allowed to adhere for 3-4 days and non-adherent cells were washed out with medium changes. The medium was further exchanged with fresh medium every 3-4 days.
Maintenance and expansion: Once adherent cells reached approximately 80-90% confluency, they were detached with 0.25% trypsin-EDTA (Sigma), washed twice in DMEM and 10% Fetal Bovine Serum, with centrifugation, 400 g, 5 minutes, and re-plated at a 1:2 to 1:1000 dilution under the same culture conditions.
Measurement of number of cells in culture: Cell number was measured using Cedex Automated Cell Counter (Innovatis). The cells were diluted 1:2 in Trypan Blue (Sigma) and cell number was measured automatically under microscope.
Treatment of mesenchymal cultures with nicotinamide: Mesenchymal cultures were initiated as described above, and supplemented with nicotinamide 1-15 mM alone, or in combination with growth factors or growth factors alone, incubated at 37° C. in a humidified atmosphere of 5% CO2 in air. At each passage and at each medium exchange, the cultures were supplemented with mesenchymal medium, nicotinamide and growth factors.
Mesenchymal stem cells were selected and cultured in the presence of particular growth factors (basic fibroblast growth factor—bFGF, heparin binding epidermal growth factor—HB-EGF, fibroblast growth factor 4—FGF-4 and platelet derived growth factor, homodimer, subunit B, PDGF-BB) in the presence and absence of nicotinamide for three or four passages and the number and size of the cells was calculated.
Two concentrations (10 and 50 ng/ml) of each one of the following factors were examined.
In addition, the influence of the combination: 5 mM NAM+50 ng/ml FGF4+50 ng/ml PDGF-BB was examined in comparison to an individual supplement.

mesenchymal stem cells [2] = assay: MSC cell size (Cedex cell counter) and granularity (side scatter FACS)
Experimental: Measurement of cell size: Cell size was measured using Cedex Automated Cell Counter (Innovatis). The cells were diluted 1:2 in Trypan Blue (Sigma) and cell size was measured automatically under microscope. Measurement of granularicity: Following trypsin treatment, the cells were analyzed for granularicity by side scatter FACS.

[3] = test system: Transforming Growth Factor-β (TGFβ); assay: TGFβ content of MSC conditioned medium by ELISA; conditions: passage 4; 5 mM NAM, 50 ng/ml FGF4; serum- and FGF4-free medium for 24 hours
Experimental: (§1) FIG. 23 is a bar graph illustrating enhancement of Transforming Growth Factor-β (TGFβ) content of conditioned medium from nicotinamide and FGF4-treated MSC cultures. Bone marrow mesenchymal stem cells were isolated and cultured as in FIG. 22 above. Cultured media was changed to medium without fetal bovine serum or FGF4 24 hours prior to passage 4, collected from the passage 4 cultures and assayed for TGFβ content by ELISA. −NAM, −FGF4=control; +NAM−FGF4=5 mM NAM, +NAM+FGF4=5 mM NAM+50 ng/ml FGF4. Note the significant effect of combined FGF4 and nicotinamide on TGFβ secretion; Mesenchymal stem cells cultured with nicotinamide and FGF4 have enhanced expansion potential, and maintain an undifferentiated state, compared to mesenchymal stem cells cultured in unsupplemented medium, or mesenchymal stem cells cultured with added nicotinamide alone. In order to assess whether mesenchymal stem cells cultured with nicotinamide or nicotinamide and FGF4 modify the culture medium in a unique manner, secretion of biologically active molecules into the culture medium was measured by ELISA, after depletion of the FGF4 from the medium.

mesenchymal stem cells [4] = assay: In-vitro wound healing assay on MSC cultures; conditions: passage 3; 4 days post wound formation
Experimental: FIGS. 20A-B are photographs illustrating results of an in vitro wound healing assay which was performed on MSCs cultured with (FIG. 20B) or without (FIG. 20A) nicotinamide at passage 3. Wound healing was observed 4 days post wound formation. In-vitro wound healing assay: Wound was performed in MSCs cultures at ˜70% confluence using 200 μl or 1000 μl tip. Four days later the cells were fixated using 10% cold Formalin (Sigma) and stained with Harris Hematoxylin (Sigma). The in-vitro wound healing process was evaluated using microscope.

[5] = test system: Keratinocyte Growth Factor (KGF); assay: KGF content of MSC conditioned medium by ELISA; conditions: passage 4; 5 mM NAM, 50 ng/ml FGF4; serum- and FGF4-free medium for 24 hours
Experimental: as §1, with “24” for “23”, “Keratinocyte” for “Transforming”, “Factor (KGF)” for “Factor-β (TGFβ)”, “KGF” for “TGFβ”

Structure (SMILES): NC(=O)c1cccnc1 [nicotinamide, Nicotinamide]
- effect on the ability of FGF4 to increase proliferation of mesenchymal stem cells (mesenchymal stem cells [1]; 5 mM NAM with FGF4 50 ng/ml): potentiating effect
- proliferative capacity of large batches of MSCs (mesenchymal stem cells [1]; cultured with nicotinamide): enhanced proliferative capacity
- cell size / undifferentiated state of MSCs cultured with FGF4 (mesenchymal stem cells [2]; FGF4 50 ng/ml, NAM 5 mM, Cedex cell counter): preserves the undifferentiated state
- cell size and granularity of MSCs grown with nicotinamide vs without (mesenchymal stem cells [2]; identical conditions without nicotinamide as comparison): smaller and less granular
- TGF-β level in conditioned medium [3]: elevated levels
- wound closure capacity of MSCs (mesenchymal stem cells [4]): higher wound closure capacity
- KGF level in conditioned medium [5]: elevated levels

— patent US20150064273A1, “Mesenchymal Stem Cells Conditioned Medium and Methods of Generating and Using the Same” (Gamida-Cell Ltd., priority 2012, published 2015)
